Reference: the supplement of paper PMC11451515

Test system: P12-Ichikawa
Test: cell viability relative to DMSO control; higher = less cytotoxic
Conditions: 48 h
How it was run: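 Leukemia cells (NOMO1 or SEM, 500 cells/well; P12-Ichikawa, 1000 cells/well) were seeded in 5 μl in 1536-well plates after at least four passages of adaptation to each medium. They received library compounds in DMSO by pin dosing, 11 threefold points from 47 μM to 0.79 nM. Luminescence with CellTiter-Glo One was read after 48 h at 37°C. Viability is stated per plate relative to DMSO wells, with cell-free wells as background.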

[1] = HPLM + 10% dialyzed FBS, 0.000781 µM
[2] = HPLM + 10% dialyzed FBS, 0.00234 µM
[3] = HPLM + 10% dialyzed FBS, 0.00702 µM
[4] = HPLM + 10% dialyzed FBS, 0.0211 µM
[5] = HPLM + 10% dialyzed FBS, 0.0632 µM
[6] = HPLM + 10% dialyzed FBS, 0.19 µM
[7] = HPLM + 10% dialyzed FBS, 0.569 µM
[8] = HPLM + 10% dialyzed FBS, 1.71 µM
[9] = HPLM + 10% dialyzed FBS, 5.12 µM
[10] = HPLM + 10% dialyzed FBS, 15.4 µM
[11] = HPLM + 10% dialyzed FBS, 46.1 µM
[12] = RPMI 5 mM glucose + 10% FBS, 0.000781 µM
[13] = RPMI 5 mM glucose + 10% FBS, 0.00234 µM
[14] = RPMI 5 mM glucose + 10% FBS, 0.00702 µM
[15] = RPMI 5 mM glucose + 10% FBS, 0.0211 µM
[16] = RPMI 5 mM glucose + 10% FBS, 0.0632 µM
[17] = RPMI 5 mM glucose + 10% FBS, 0.19 µM
[18] = RPMI 5 mM glucose + 10% FBS, 0.569 µM
[19] = RPMI 5 mM glucose + 10% FBS, 1.71 µM
[20] = RPMI 5 mM glucose + 10% FBS, 5.12 µM
[21] = RPMI 5 mM glucose + 10% FBS, 15.4 µM
[22] = RPMI 5 mM glucose + 10% FBS, 46.1 µM
[23] = RPMI 5 mM glucose + 10% dialyzed FBS, 0.000781 µM
[24] = RPMI 5 mM glucose + 10% dialyzed FBS, 0.00234 µM
[25] = RPMI 5 mM glucose + 10% dialyzed FBS, 0.00702 µM
[26] = RPMI 5 mM glucose + 10% dialyzed FBS, 0.0211 µM
[27] = RPMI 5 mM glucose + 10% dialyzed FBS, 0.0632 µM
[28] = RPMI 5 mM glucose + 10% dialyzed FBS, 0.19 µM
[29] = RPMI 5 mM glucose + 10% dialyzed FBS, 0.569 µM
[30] = RPMI 5 mM glucose + 10% dialyzed FBS, 1.71 µM
[31] = RPMI 5 mM glucose + 10% dialyzed FBS, 5.12 µM
[32] = RPMI 5 mM glucose + 10% dialyzed FBS, 15.4 µM
[33] = RPMI 5 mM glucose + 10% dialyzed FBS, 46.1 µM

SMILES	cell viability [1]	cell viability [2]	cell viability [3]	cell viability [4]	cell viability [5]	cell viability [6]	cell viability [7]	cell viability [8]	cell viability [9]	cell viability [10]	cell viability [11]	cell viability [12]	cell viability [13]	cell viability [14]	cell viability [15]	cell viability [16]	cell viability [17]	cell viability [18]	cell viability [19]	cell viability [20]	cell viability [21]	cell viability [22]	cell viability [23]	cell viability [24]	cell viability [25]	cell viability [26]	cell viability [27]	cell viability [28]	cell viability [29]	cell viability [30]	cell viability [31]	cell viability [32]	cell viability [33]
Cc1cc(SCc2sc(-c3ccc(C(F)(F)F)c(F)c3)nc2C)ccc1OCC(=O)O	106%	104%	100%	92.4%	105%	106%	106%	101%	100%	86.2%	91.5%	98.4%	102%	93.1%	81.6%	97.3%	99.7%	94.4%	93.4%	96.7%	89.5%	87.9%	93.3%	94.4%	96.7%	92.8%	89.5%	97%	93.6%	92.8%	98%	80.9%	76.3%
COC1=CC=C(C=C1)C/2=C/OC3=CC(=CC=C3C2=O)O	122%	116%	114%	112%	124%	111%	115%	102%	106%	104%	96.7%	120%	120%	115%	120%	121%	112%	118%	111%	113%	114%	103%	116%	111%	115%	118%	108%	105%	117%	104%	108%	96.2%	101%
C[C@H]1[C@@H](CC(C[C@H]2O[C@@H]3O[C@]4(C)CC[C@H]5[C@H](C)CC[C@@H]([C@H]2C)[C@@]35OO4)C[S+](=O)([O-])c2ccc(COC(=O)N(C)C)cc2)O[C@@H]2O[C@]3(C)CC[C@H]4[C@H](C)CC[C@@H]1[C@@]24OO3	114%	111%	103%	117%	110%	102%	85.5%	55.5%	49.7%	39%	13.8%	114%	122%	113%	122%	113%	116%	81.7%	52%	53.2%	33.5%	21.8%	118%	110%	107%	110%	103%	106%	50.7%	41.7%	36.9%	39.7%	35%
CC1=C(/C=C/C(C)=C/C=C/C(C)=C/C(=O)Nc2ccc(O)cc2)C(C)(C)CCC1	85.1%	83.4%	85.5%	96.1%	90.8%	91.8%	93.8%	68.5%	23.7%	8.54%	3.66%	82%	88.8%	83%	91.8%	86.3%	81.9%	87%	57.9%	28.5%	7.98%	1.15%	83.3%	85.9%	84%	84.8%	83.4%	81.5%	83.3%	23.8%	6.39%	4.24%	1.74%
CC1(C)OC/2=C(\[C@H](NCC3=CC=CC=C3)[C@@H]1O)C(=O)C4=CC=CC=C4C2=O	102%	106%	107%	104%	106%	108%	102%	94%	96.4%	47.8%	6.77%	100%	102%	102%	115%	96.4%	99.8%	98.8%	88.3%	71.8%	18.7%	6.26%	98.5%	94.9%	95.1%	101%	101%	101%	101%	96.7%	75.8%	54.6%	5.89%
c1ccc2c(-c3cnn4cc(-c5ccc(N6CCNCC6)cc5)cnc34)ccnc2c1	97.9%	103%	150%	144%	151%	141%	146%	126%	125%	121%	59.3%	88.7%	91.2%	161%	182%	191%	166%	142%	123%	111%	107%	2.89%	96%	96.6%	175%	169%	168%	164%	168%	138%	119%	120%	3.35%
CC1=CC2=C(O1)C(=C3OC(=O)\C=C(C)/C3=C2)C	105%	116%	113%	109%	113%	111%	117%	111%	108%	102%	99.6%	89.6%	107%	105%	106%	103%	107%	118%	106%	107%	102%	96.8%	102%	112%	110%	111%	113%	115%	110%	115%	104%	105%	86.8%
CCC(CC)[C@H](NC(C)=O)[C@@H]1[C@H](O)[C@@H](C(=O)O)C[C@H]1NC(=N)N	84.6%	86.3%	86.2%	95.4%	102%	84.1%	95.6%	89%	100%	91.4%	101%	85.2%	79.7%	81.5%	86%	84.2%	75.9%	84.8%	85.1%	87.4%	78.1%	86.9%	75.7%	82.1%	81.7%	86.4%	83%	80.5%	77.4%	81.8%	76.5%	82.6%	86.8%
CC1OC(OC/2=C(/OC3=C(C(=CC(=C3)O)O)C2=O)C4=CC=C(O)C=C4)C(O)C(OC(C)=O)C1OC(C)=O (stereo not given)	112%	118%	111%	116%	113%	108%	108%	107%	101%	103%	100%	108%	114%	115%	112%	120%	117%	103%	108%	105%	96.4%	103%	114%	119%	117%	115%	116%	114%	109%	114%	111%	103%	104%
COc1cc(N2CCC(N3CCN(C)CC3)CC2)ccc1Nc1ncnc(Nc2ccccc2[S+](=O)([O-])C(C)C)n1	113%	117%	120%	125%	97.9%	128%	122%	117%	115%	90.1%	28.4%	97.4%	90.7%	100%	110%	74.5%	112%	106%	103%	103%	91.2%	44.9%	112%	97%	118%	119%	84%	125%	120%	119%	114%	83.4%	47.3%
N/C(=N\C(=O)c1nc(Cl)c(N)nc1N)NCc1ccccc1	101%	106%	105%	103%	108%	105%	108%	108%	101%	98.7%	70.9%	84.9%	96.9%	83.3%	92.1%	99%	103%	106%	95.1%	107%	96.5%	58.4%	82.5%	94.1%	94.1%	88.2%	94.4%	101%	103%	106%	98.2%	76.1%	51.4%
CN1[C@@H]2CC(O)C[C@H]1[C@@H]1O[C@@H]12 (stereo not given in full)	122%	121%	124%	105%	119%	115%	119%	120%	114%	119%	6.79%	122%	113%	123%	119%	135%	121%	119%	125%	107%	104%	18.3%	118%	119%	127%	112%	125%	120%	120%	113%	106%	120%	4.64%
CC1(C)CC(=O)c2c(C(F)(F)F)nn(-c3ccc(C(N)=O)c(NC4CCC(OC(=O)CN)CC4)c3)c2C1 (stereo not given)	107%	86.9%	96.8%	96.5%	102%	88.6%	62.2%	42.1%	36.4%	36.3%	37.9%	83.8%	93.7%	91.7%	95.4%	99.1%	66.3%	35.2%	33.2%	29.2%	28.8%	27.3%	92.9%	92.9%	93%	91.9%	89.6%	82.4%	41%	32.3%	33.3%	28.8%	28.5%
CN(C)c1ccc(C(=O)NCCCCCCC(=O)NO)cc1	107%	102%	114%	104%	110%	111%	102%	44%	1.14%	0.537%	1.62%	101%	104%	109%	110%	116%	108%	99.5%	46.9%	1.46%	0.517%	1.9%	94.9%	105%	113%	116%	122%	121%	98.6%	25.4%	1.41%	0.539%	1.68%
COc1ccc(Cn2ccc3ccc(C(=O)NO)cc32)cc1	116%	121%	119%	87.4%	128%	123%	120%	119%	113%	90.3%	44%	108%	114%	120%	65.3%	134%	125%	130%	120%	120%	83.5%	52.3%	116%	116%	116%	79.9%	126%	126%	129%	119%	114%	87%	55.6%
